The supplement of paper PMC4862054

Columns and labels:
Conditions in all cases: incubation time: 72 h
CAL-148 [1] = assay: drug sensitivity score (DSS), CellTox Green (DSS (AUC-based score)); higher = stronger drug effect (viability inhibition or cytotoxicity); extreme values may be limits of the assay
Summary of the method: (§1)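 Plates with 384 wells held compound at 5 concentrations in 10-fold steps over a 10,000-fold range specific to each compound. Breast cancer cell lines were added in 20 µl suspension and incubated 72 h, then read for CellTox Green and CellTiter-Glo signals, with each plate normalised to 0.1 % DMSO and a positive kill control. The drug sensitivity score is based on the area under the fitted dose-response curve.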

HCC1599 [2] = assay: as above
Summary of the method: as §1

BT-474 = assay: as above
Summary of the method: as §1

CAL-85-1 [3] = assay: as above
Summary of the method: as §1

MDA-MB-453 = assay: normalised response (% of control), CellTiter-Glo; higher = more viable cells (100 = DMSO, 0 = benzethonium chloride kill control)
Summary of the method: (§2)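 Values are normalised signals, each belonging to one concentration of the series. Breast cancer cells (20 µl suspension) were seeded into 384-well plates with compound at 5 concentrations in 10-fold steps over a compound-specific 10,000-fold range and incubated 72 h. Readouts were CellTox Green fluorescence (485/520 nm), then CellTiter-Glo luminescence after 10 min at room temperature, with each plate set to 0.1 % DMSO as 100 and a positive kill control as 0.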

HCC1143 = assay: as above
Summary of the method: as §2

CAL-148 [4] = assay: as above
Summary of the method: as §2

HCC1599 [5] = assay: as above
Summary of the method: as §2

CAL-120 = assay: as above
Summary of the method: as §2

BT-549 = assay: as above
Summary of the method: as §2

MDA-MB-436 = assay: as above
Summary of the method: as §2

MDA-MB-231 = assay: as above
Summary of the method: as §2

Hs578T = assay: as above
Summary of the method: as §2

DU-4475 = assay: as above
Summary of the method: as §2

SK-BR-3 = assay: as above
Summary of the method: as §2

HCC1937 = assay: as above
Summary of the method: as §2

HDQ-P1 = assay: as above
Summary of the method: as §2

MCF-10A = assay: as above
Summary of the method: as §2

CAL-85-1 [6] = assay: as above
Summary of the method: as §2

MFM-223 = assay: as above
Summary of the method: as §2

MDA-MB-468 = assay: as above
Summary of the method: as §2

SMILES	drug sensitivity score (CAL-148 [1])	drug sensitivity score (HCC1599 [2])	drug sensitivity score (BT-474)	drug sensitivity score (CAL-85-1 [3])	normalised response (MDA-MB-453) [%]	normalised response (HCC1143) [%]	normalised response (CAL-148 [4]) [%]	normalised response (HCC1599 [5]) [%]	normalised response (CAL-120) [%]	normalised response (BT-549) [%]	normalised response (MDA-MB-436) [%]	normalised response (MDA-MB-231) [%]	normalised response (Hs578T) [%]	normalised response (DU-4475) [%]	normalised response (SK-BR-3) [%]	normalised response (HCC1937) [%]	normalised response (HDQ-P1) [%]	normalised response (MCF-10A) [%]	normalised response (CAL-85-1 [6]) [%]	normalised response (MFM-223) [%]	normalised response (MDA-MB-468) [%]
Cn1cc(C2=Nc3cc(NC(=O)C(N)C4CCCCC4)cc4c3C2=CNNC4=O)cn1 (stereo not drawn)	0	0	0	12	–	–	–	–	–	–	–	–	–	–	–	–	–	–	–	–	–
Cn1cc(C2=Nc3cc(NC(=O)C(N)C4CCCCC4)cc4c3C2=CNNC4=O)cn1 (stereo not drawn) (1000 nM)	–	–	–	–	35.9	64.5	83.8	11.9	69.7	25.7	53.3	63.7	41.3	89	17.8	87	85.2	74.5	36.8	46.4	30.7
COc1cc2c(cc1O)CC[C@@H]1[C@@H]2CC[C@]2(C)[C@@H](O)CC[C@@H]12 [2-methoxyestradiol]	0	0	3.99	0	–	–	–	–	–	–	–	–	–	–	–	–	–	–	–	–	–
COc1cc2c(cc1O)CC[C@@H]1[C@@H]2CC[C@]2(C)[C@@H](O)CC[C@@H]12 [2-methoxyestradiol] (1000 nM)	–	–	–	–	72.7	82.5	96.4	96.6	81.8	49.5	74.2	73.9	77.3	98.5	83.2	89.6	99.9	96	77.6	75.3	95.1
Cc1sc2c(c1C)C(c1ccc(Cl)cc1)=N[C@@H](CC(=O)OC(C)(C)C)c1nnc(C)n1-2 [(+)JQ1]	6.55	0	0	8.47	–	–	–	–	–	–	–	–	–	–	–	–	–	–	–	–	–
Cc1sc2c(c1C)C(c1ccc(Cl)cc1)=N[C@@H](CC(=O)OC(C)(C)C)c1nnc(C)n1-2 [(+)JQ1] (1000 nM)	–	–	–	–	46.1	72.8	71.5	80	73.4	43.5	83.2	77.2	48.8	56.6	66.9	80.8	68.5	57.1	38.7	58.2	55.1
CC1(C)CCC(CN2CCN(c3ccc(C(=O)NS(=O)(=O)c4ccc(NCC5CCOCC5)c([N+](=O)[O-])c4)c(Oc4cnc5[nH]ccc5c4)c3)CC2)=C(c2ccc(Cl)cc2)C1 [ABT-199]	0	0	0	0	–	–	–	–	–	–	–	–	–	–	–	–	–	–	–	–	–
Oc1ncnc2[nH]ncc12 [Allopurinol]	0	0	0	0.422	–	–	–	–	–	–	–	–	–	–	–	–	–	–	–	–	–
Oc1ncnc2[nH]ncc12 [Allopurinol] (1000 nM)	–	–	–	–	107	107	99.2	119	98.8	99.7	100	103	109	105	112	94.3	98.1	106	96.2	108	106
O=C1CN2Cc3c(ccc(Cl)c3Cl)N=C2N1 [Anagrelide]	–	0	0	0	–	–	–	–	–	–	–	–	–	–	–	–	–	–	–	–	–
O=C1CN2Cc3c(ccc(Cl)c3Cl)N=C2N1 [Anagrelide] (1000 nM)	–	–	–	–	101	97.9	95	118	93.6	95.1	95.8	94.2	88.7	98	98.2	96.8	95.1	101	101	102	102
Nc1ncn([C@@H]2O[C@H](CO)[C@@H](O)[C@H]2O)c(=O)n1 [Azacitidine]	0	0	1.95	0	–	–	–	–	–	–	–	–	–	–	–	–	–	–	–	–	–
Nc1ncn([C@@H]2O[C@H](CO)[C@@H](O)[C@H]2O)c(=O)n1 [Azacitidine] (1000 nM)	–	–	–	–	96.8	99.5	96.2	84.9	91.1	80.5	79.1	97.4	102	90.5	91.7	90.9	96.4	110	106	96.7	39
O=NN(CCCl)C(=O)NCCCl [Carmustine]	0	0	0	0	–	–	–	–	–	–	–	–	–	–	–	–	–	–	–	–	–
O=NN(CCCl)C(=O)NCCCl [Carmustine] (1000 nM)	–	–	–	–	102	100	91.3	101	96.6	101	101	97.8	102	98.9	96.2	99.8	101	98.3	97.5	97.6	96.8
CC1=C2C[C@H]3[C@@H](CC=C4C[C@@H](O)CC[C@@]43C)[C@@H]2CC[C@]12O[C@@H]1C[C@H](C)CN[C@H]1[C@H]2C [Cyclopamine]	0	0	0	0	–	–	–	–	–	–	–	–	–	–	–	–	–	–	–	–	–
CC1=C2C[C@H]3[C@@H](CC=C4C[C@@H](O)CC[C@@]43C)[C@@H]2CC[C@]12O[C@@H]1C[C@H](C)CN[C@H]1[C@H]2C [Cyclopamine] (1000 nM)	–	–	–	–	108	105	105	108	106	92.4	101	112	111	99.5	111	98.5	103	106	106	110	105
CC(=O)N(O)CCCCCNC(=O)CCC(=O)N(O)CCCCCNC(=O)CCC(=O)N(O)CCCCCN [Deferoxamine]	7.47	0	0	0	–	–	–	–	–	–	–	–	–	–	–	–	–	–	–	–	–
CC(=O)O[C@@]12CO[C@@H]1C[C@H](O)[C@@]1(C)C(=O)[C@H](O)C3=C(C)[C@@H](OC(=O)[C@H](O)[C@@H](NC(=O)OC(C)(C)C)c4ccccc4)C[C@@](O)([C@@H](OC(=O)c4ccccc4)[C@H]21)C3(C)C [Docetaxel]	0	0	11.8	25.5	–	–	–	–	–	–	–	–	–	–	–	–	–	–	–	–	–
CC(=O)O[C@@]12CO[C@@H]1C[C@H](O)[C@@]1(C)C(=O)[C@H](O)C3=C(C)[C@@H](OC(=O)[C@H](O)[C@@H](NC(=O)OC(C)(C)C)c4ccccc4)C[C@@](O)([C@@H](OC(=O)c4ccccc4)[C@H]21)C3(C)C [Docetaxel] (100 nM)	–	–	–	–	45.3	31.5	36.6	28.5	56.3	16	31.6	28.7	13	34.7	10.1	68.3	67.1	41.5	28.1	40	36.6
C[C@]12CC[C@@H]3c4ccc(OC(=O)N(CCCl)CCCl)cc4CC[C@H]3[C@@H]1CC[C@@H]2O [Estramustine]	0	0	0	0	–	–	–	–	–	–	–	–	–	–	–	–	–	–	–	–	–
CC1(C)CNc2cc(NC(=O)c3cccnc3NCc3ccncc3)ccc21 [Motesanib] (1000 nM)	–	–	–	–	101	93.6	86.4	98.1	92.3	97.6	103	89.1	96.4	98.4	80.6	101	96.6	96.9	93.5	91	91.5
CC(=O)c1c(C)c2cnc(Nc3ccc(N4CCNCC4)cn3)nc2n(C2CCCC2)c1=O [Palbociclib]	–	0	0	0	–	–	–	–	–	–	–	–	–	–	–	–	–	–	–	–	–
CC[C@@H]1C(=O)OC[C@@H]1Cc1cncn1C [Pilocarpine] (4000 nM)	–	–	–	–	98.9	92.2	91.6	92.7	95.7	97.6	91.5	97.4	105	97	92.4	92.6	92	93.8	102	94.1	91.8
CC(C)(C)c1cnc(CSc2cnc(NC(=O)C3CCNCC3)s2)o1 [SNS-032] (1000 nM)	–	–	–	–	25.5	12.1	53.8	7.69	36.9	8.17	17.6	7.43	13	6.57	3.47	26.1	20.8	14.3	6.5	18.9	5.83
Cn1cnc2c(F)c(Nc3ccc(Br)cc3Cl)c(C(=O)NOCCO)cc21 [Selumetinib] (1000 nM)	–	–	–	–	106	85.1	79.4	93.9	85.1	96.5	90.7	72.5	93.4	4.56	86.8	84.7	63.8	37.6	107	92.2	87.8
Nc1nc2[nH]cnc2c(=S)[nH]1 [Thioguanine] (1000 nM)	–	–	–	–	94.3	99.1	93.4	82	79	94.2	83.8	50.7	78.3	88.5	95.4	59.9	66.1	99.8	70.3	93.7	95.7
